In patent US4740233A, “Substituted 1,2,4-triazolo[1,5-a]-pyrimidine-2-sulfonamides and compositions and methods of controlling undesired vegetation and suppressing the nitrification of ammonium nitrogen in soil” (The Dow Chemical Company, priority 1986, dated 1988):

Assays:
cotton = assay: Preemergent control of plant species; format: in vivo, Gossypium spp.; conditions: Gossypium hirsutum, pre-emergence, 336 h; 0.25 lb/acre; read-out: percent preemergent control
In short: (§1)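 Seeds sown in agricultural soil in greenhouse beds, then aqueous-emulsion compositions applied uniformly to the bed surface at listed rates. Beds kept two weeks under greenhouse growth conditions with watering. Control expressed as growth reduction versus water-treated beds of the same species.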

rape = assay: Preemergent control of plant species; format: in vivo, Brassica napus; conditions: Brassica napus, pre-emergence, 336 h; 0.25 lb/acre; read-out: percent preemergent control
In short: as §1

soybean = assay: Preemergent control of plant species; format: in vivo, Glycine max.; conditions: Glycine max, pre-emergence, 336 h; 0.25 lb/acre; read-out: percent preemergent control
In short: as §1

sugar beet = assay: Preemergent control of plant species; format: in vivo, Beta saccharifera; conditions: Beta vulgaris, pre-emergence, 336 h; 0.25 lb/acre; read-out: percent preemergent control
In short: as §1

jimsonweed = assay: Preemergent control of plant species; format: in vivo, Datura stramonium; conditions: Datura stramonium, pre-emergence, 336 h; 0.25 lb/acre; read-out: percent preemergent control
In short: as §1

annual morning glory = assay: Preemergent control of plant species; format: in vivo, Ipomoea spp.; conditions: Ipomoea, pre-emergence, 336 h; 0.25 lb/acre; read-out: percent preemergent control
In short: as §1

pigweed = assay: Preemergent control of plant species; format: in vivo, Amaranthus spp.; conditions: Amaranthus retroflexus, pre-emergence, 336 h; 0.25 lb/acre; read-out: percent preemergent control
Description: (§2) The seeds of various species of plants were planted in beds of good agricultural soil in a greenhouse. A number of compositions of the present invention, generally in the nature of an aqueous emulsion, were applied at rates listed in the table so as to deposit a predetermined amount of active ingredients uniformly throughout the surface of the bed. Another seed bed was treated only with water to serve as a control. After treatment the seed beds were maintained for two weeks under greenhouse conditions conducive for good plant growth and watered as necessary. Control refers to the reduction in growth compared to the observed results of the same untreated species.

velvetleaf = assay: Preemergent control of plant species; format: in vivo, Abutilon theophrasti; conditions: Abutilon theophrasti, pre-emergence, 336 h; 0.25 lb/acre; read-out: percent preemergent control
In short: as §1

corn = assay: Preemergent control of plant species; format: in vivo, Zea mays; conditions: Zea mays, pre-emergence, 336 h; 0.25 lb/acre; read-out: percent preemergent control
In short: as §1

rice [1] = assay: Preemergent control of plant species; format: in vivo, Oryza sativa; conditions: Oryza sativa, pre-emergence, 336 h; 0.25 lb/acre; read-out: percent preemergent control
In short: as §1

wheat = assay: Preemergent control of plant species; format: in vivo, Triticum aestivum; conditions: Triticum aestivum, pre-emergence, 336 h; 0.25 lb/acre; read-out: percent preemergent control
In short: as §1

barnyardgrass [2] = assay: Preemergent control of plant species; format: in vivo, Echinochloa crusgalli; conditions: Echinochloa crus-galli, pre-emergence, 336 h; 0.25 lb/acre; read-out: percent preemergent control
In short: as §1

crabgrass = assay: Preemergent control of plant species; format: in vivo, Digitaria spp.; conditions: Digitaria sanguinalis, pre-emergence, 336 h; 0.25 lb/acre; read-out: percent preemergent control
Description: as §2

johnson grass = assay: Preemergent control of plant species; format: in vivo, Sorghum halepense; conditions: Sorghum halepense, pre-emergence, 336 h; 0.25 lb/acre; read-out: percent preemergent control
In short: as §1

wild oats = assay: Preemergent control of plant species; format: in vivo; conditions: Avena fatua, pre-emergence, 336 h; 0.25 lb/acre; read-out: percent preemergent control
In short: as §1

yellow foxtail = assay: Preemergent control of plant species; format: in vivo, Setaria lutescens; conditions: Setaria, pre-emergence, 336 h; 0.25 lb/acre; read-out: percent preemergent control
In short: as §1

yellow nutsedge [3] = assay: Preemergent control of plant species; format: in vivo, Cyperus esculentus; conditions: Cyperus, pre-emergence, 336 h; 0.25 lb/acre; read-out: percent preemergent control
In short: as §1

rice [4] = assay: Control of aquatic plant species (paddy water); format: in vivo, Oryza sativa; conditions: Oryza sativa, 216 h, nine days, read-out: Percent control
In short: (§3)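 Plants transplanted at 1-2 inch stage into soil, flooded about 1 inch deep; acetone concentrate of compound injected into paddy water at varied volumes to set concentration. Percent control scored nine days after application.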

barnyardgrass [5] = assay: Control of aquatic plant species (paddy water); format: in vivo, Echinochloa crusgalli; conditions: Echinochloa crus-galli, 216 h, nine days, read-out: Percent control
Description: In testing for such utility, the plant species to be tested were transplanted into 16 oz. containers into about 2 inches of soil when they were in the 1-2 inch stage and then flooded to a depth of about 1 inch. An acetone concentrate of the chemical to be tested was then injected into the paddy water, the volume injected being varied as desired to provide the desired concentration. Percent control was evaluated nine days after application.

sprangletop = assay: Control of aquatic plant species (paddy water); format: in vivo, Leptochloa filiformis; conditions: Leptochloa filiformis, 216 h, nine days, read-out: Percent control
In short: as §3

yellow nutsedge [6] = assay: Control of aquatic plant species (paddy water); format: in vivo, Cyperus esculentus; conditions: Cyperus, 216 h, nine days, read-out: Percent control
In short: as §3

[7] = tested on: nitrification of ammonium nitrogen; assay: Suppression of nitrification of ammonium nitrogen in soil; conditions: 27° C.
In short: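 Soil (20 g) moistened to its 1/3 bar tension value, mixed with test chemical and incubated sealed for two weeks at 27° C. Nitrate extracted with ammonium sulfate solution and measured by nitrate-specific ion electrode; value given as % NH4-N remaining.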

sorghum = assay: Preemergent control of plant species; format: in vivo, Sorghum vulgare; conditions: Sorghum, pre-emergence, 336 h; 0.25 lb/acre; read-out: percent preemergent control
In short: as §1

Row | SMILES | plant injury at 280.212 g/ha (cotton) [%] | plant injury at 280.212 g/ha (rape) [%] | plant injury at 280.212 g/ha (soybean) [%] | plant injury at 280.212 g/ha (sugar beet) [%] | pest or weed control at 280.212 g/ha (jimsonweed) [%] | pest or weed control at 280.212 g/ha (annual morning glory) [%] | pest or weed control at 280.212 g/ha (pigweed) [%] | pest or weed control at 280.212 g/ha (velvetleaf) [%] | plant injury at 280.212 g/ha (corn) [%] | plant injury at 280.212 g/ha (rice [1]) [%] | plant injury at 280.212 g/ha (wheat) [%] | pest or weed control at 280.212 g/ha (barnyardgrass [2]) [%] | pest or weed control at 280.212 g/ha (crabgrass) [%] | pest or weed control at 280.212 g/ha (johnson grass) [%] | pest or weed control at 280.212 g/ha (wild oats) [%] | pest or weed control at 280.212 g/ha (yellow foxtail) [%] | pest or weed control at 280.212 g/ha (yellow nutsedge [3]) [%] | % NH4-N Remaining After 2 Weeks Incubation ([7]; 1 ppm) [%] | plant injury at 280.212 g/ha (sorghum) [%] | % NH4-N Remaining After 2 Weeks Incubation ([7]; 0.1 ppm) [%] | further results
1 | Cc1cc(C)n2nc(S(=O)(=O)Nc3c(F)cccc3F)nc2n1 [Compound 25, 5,7-Dimethyl-N-(2,6-difluorophenyl)-1,2,4-triazolo[1,5-a]pyrimidine-2-sulfonamide] | 98 | 100 | 98 | 100 | 98 | 80 | 100 | 98 | 100 | 100 | 70 | 98 | 100 | 98 | 95 | 100 | 95 | 79 |  |  | pest or weed control at 250 g/ha (rice [4]; 0.25 Kg/Ha): 97%; pest or weed control at 250 g/ha (barnyardgrass [5]; 0.25 Kg/Ha): 95%; pest or weed control at 250 g/ha (sprangletop; 0.25 Kg/Ha): 0%; pest or weed control at 250 g/ha (yellow nutsedge [6]; 0.25 Kg/Ha): 90%; % NH4-N Remaining After 2 Weeks Incubation ([7]; 0.06 ppm): 31%; % NH4-N Remaining After 2 Weeks Incubation ([7]; 0.125 ppm): 46%; % NH4-N Remaining After 2 Weeks Incubation ([7]; 0.25 ppm): 48%; % NH4-N Remaining After 2 Weeks Incubation ([7]; 0.5 ppm): 73%
2 | Cc1cccc(Cl)c1NS(=O)(=O)c1nc2nc(C)c(C)c(C)n2n1 [Compound 113] | 30 | 90 | 0 | 100 | 0 | 0 | 100 | 60 | 0 | 40 | 0 | 20 | 90 | 50 | 0 | 50 | 50 | 69 | 0 |  | % NH4-N Remaining After 2 Weeks Incubation ([7]; 0.06 ppm): 16%; % NH4-N Remaining After 2 Weeks Incubation ([7]; 0.25 ppm): 39%; % NH4-N Remaining After 2 Weeks Incubation ([7]; 4 ppm): 86%
3 | Cc1cc(C)n2nc(S(=O)(=O)Nc3c(Cl)cc(F)cc3Cl)nc2n1 [Compound 44] | 85 | 93 | 80 | 97 | 100 | 20 | 95 | 0 | 10 | 70 | 70 | 40 | 90 | 80 | 40 | 70 | 90 | 71 | 93 | 42 | % NH4-N Remaining After 2 Weeks Incubation ([7]; 0.01 ppm): 0%; % NH4-N Remaining After 2 Weeks Incubation ([7]; 10 ppm): 95%
4 | Cc1cc(C)n2nc(S(=O)(=O)Nc3c(C)cccc3Cl)nc2n1 [Compound 31] | 80 | 98 | 95 | 100 | 65 | 100 | 95 | 95 | 95 | 98 | 98 | 100 | 100 | 100 | 98 | 100 |  | 86 | 50 | 66 | pest or weed control at 125 g/ha (rice [4]; 0.125 Kg/Ha): 90%; pest or weed control at 125 g/ha (barnyardgrass [5]; 0.125 Kg/Ha): 97%; pest or weed control at 125 g/ha (sprangletop; 0.125 Kg/Ha): 45%; pest or weed control at 125 g/ha (yellow nutsedge [6]; 0.125 Kg/Ha): 97%; % NH4-N Remaining After 2 Weeks Incubation ([7]; 0.01 ppm): 34%; % NH4-N Remaining After 2 Weeks Incubation ([7]; 10 ppm): 91%
5 | COc1cc(C)n2nc(S(=O)(=O)Nc3c(Cl)cccc3Cl)nc2n1 [Compound 178] | 65 | 80 | 0 | 95 | 0 | 10 | 60 | 40 | 0 | 0 |  | 25 | 0 | 0 |  | 0 | 0 | 43 | 0 | 0 | pest or weed control at 2000 g/ha (rice [4]; 2.0 Kg/Ha): 50%; pest or weed control at 2000 g/ha (barnyardgrass [5]; 2.0 Kg/Ha): 20%; pest or weed control at 2000 g/ha (sprangletop; 2.0 Kg/Ha): 0%; pest or weed control at 2000 g/ha (yellow nutsedge [6]; 2.0 Kg/Ha): 90%; % NH4-N Remaining After 2 Weeks Incubation ([7]; 10 ppm): 91%
6 | Cc1cc(C)n2nc(S(=O)(=O)Nc3ccccc3C(N)=O)nc2n1 [Compound 37] | 95 | 95 | 95 | 97 | 100 | 90 | 100 | 95 | 95 | 97 | 0 | 97 | 70 | 95 | 0 | 97 | 100 | 7 | 95 | 0 | % NH4-N Remaining After 2 Weeks Incubation ([7]; 0.01 ppm): 0%; % NH4-N Remaining After 2 Weeks Incubation ([7]; 10 ppm): 44%
